Data taken from patent US4232155A, “Purine compounds” (Bristol-Myers Company, priority 1979, dated 1980).
In brackets after ≈: the same amount, converted by molar mass.

What was measured:
guinea pig = experiment: In vivo bronchodilator and hypotensive activity (intratracheal pressure and arterial blood pressure in anesthetized guinea pig); details: intravenous; for ABP ED20 (dose which reduces arterial blood pressure by 20%): hypotensive activity; for ED50: Cavia porcellus, bronchodilator activity, read-out: ITP ED50 (dose resulting in a 50% decrease in intratracheal pressure); for Ratio ABP/ITP (hypotensive ED20/bronchodilating ED50): separation of bronchodilator from hypotensive effect
Experimental: The trachea of anesthetized guinea pig was cannulated and the ITP recorded on a polygraph under artificial ventilation. Arterial blood pressure (ABP; reflecting hypotensive activity) was also measured during the experiment. Either intravenous or intraduodenal routes of administration are used. […] The ratio of hypotensive ED20 /brochodilating ED50 reflects an assessment of the separation of desirable brochodilator activity from undesirable cardiovascular (hypotensive) effect in the compounds.

[1] = test system: Tracheal chains of guinea pig; experiment: In vitro bronchodilator activity, relaxation of tracheal chains (Magnus method); details: Cavia porcellus, relative to 0.1 mcg./ml. isoproterenol, read-out: EC50 (concentration producing a relaxation which is 50% of the maximum response to 0.1 mcg./ml. of isoproterenol)
Experimental: Tracheal chains of guinea pig were prepared by the method of A. Akcasu, Arch. Int. […] The response to each test compound was recorded by the Magnus method and expressed as a percentage of the maximum response obtained with 0.1 mcg./ml. of isoproterenol prior to each experiment.

| SMILES | ABP ED20 (dose which reduces arterial blood pressure by 20%) (guinea pig) [mg/kg] | EC50 [1] [µg/mL] | ED50 (guinea pig) [mg/kg] | Ratio ABP/ITP (hypotensive ED20/bronchodilating ED50) (guinea pig) |
| --- | --- | --- | --- | --- |
| Cn1c(=O)c2[nH]cnc2n(C)c1=O [Aminophylline, reference compound] | 1.4 | – | – | – |
| CCCNc1nc(N)c2ncn(C3C=CCCC3)c2n1 (centres unmarked) [Example 1, 9-(2-Cyclohexenyl)-2-n-propylamino-9H-adenine] | > 3 | 0.47 (≈ 1.73 µM) | 1.4 | > 2.1 |
| Nc1nc(NC2CCCCC2)nc2c1ncn2C1C=CCCC1 (centres unmarked) [Example 2, 9-(2-Cyclohexenyl)-2-cyclohexylamino-9H-adenine] | 2.4 | 0.24 (≈ 0.768 µM) | > 3 | < 0.8 |
| CCCNc1nc(N)c2ncn(C3CCCCC3)c2n1 [Example 3, 9-Cyclohexyl-2-n-propylamino-9H-adenine] | 2.8 | 0.75 (≈ 2.73 µM) | 0.49 | 5.7 |
| Nc1nc(NC2CCCCC2)nc2c1ncn2C1CCCCC1 [Example 4, 9-Cyclohexyl-2-cyclohexylamino-9H-adenine] | > 3 | 0.21 (≈ 0.668 µM) | 1.5 | > 2 |
